Values quoted from earlier work in patent US12551454B2, “Isoproterenol compositions and methods” (Endo Operations Limited, priority 2020, dated 2026).

Settings: more potent than its (S)-enantiomer

For CC(C)NC[C@H](O)c1ccc(O)c(O)c1 (single isomer, unassigned) [(R)-enantiomer of Isoproterenol], the “potency relative to (S)-enantiomer” value is given as about 90 times.
